For three compounds, remaining binding results are on record in article PMC6437697 (Journal of Medicinal Chemistry, 2019).

Common to all, as to experiment: KINOMEscan
Holding throughout (type): binding
Details in all cases: read-out: % control activity remaining

One assay has as its target T1, ABL2 (Homo sapiens, UniProt P42684).
T1 construct: purchased Eurofins DiscoverX KINOMEscan

A further assay addresses T2, PKMYT1 (Homo sapiens, UniProt Q99640).
T2 construct: purchased Eurofins DiscoverX KINOMEscan
T2 sequence (Q99640 1-499): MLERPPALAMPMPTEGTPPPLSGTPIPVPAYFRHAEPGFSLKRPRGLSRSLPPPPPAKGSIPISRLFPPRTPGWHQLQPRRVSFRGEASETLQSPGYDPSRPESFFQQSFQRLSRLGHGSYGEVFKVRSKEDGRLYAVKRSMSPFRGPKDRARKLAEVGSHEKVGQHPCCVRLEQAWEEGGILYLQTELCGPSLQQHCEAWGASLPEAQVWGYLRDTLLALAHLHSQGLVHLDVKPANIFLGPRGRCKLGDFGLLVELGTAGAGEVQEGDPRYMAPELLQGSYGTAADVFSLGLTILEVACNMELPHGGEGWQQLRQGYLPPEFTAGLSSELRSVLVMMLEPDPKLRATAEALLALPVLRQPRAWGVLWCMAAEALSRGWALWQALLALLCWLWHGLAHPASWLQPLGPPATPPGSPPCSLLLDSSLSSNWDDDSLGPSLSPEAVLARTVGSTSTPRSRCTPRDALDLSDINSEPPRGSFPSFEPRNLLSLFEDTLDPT

Another assay addresses T3, TYRO3 (Homo sapiens, UniProt Q06418).
T3 construct: purchased Eurofins DiscoverX KINOMEscan
T3 sequence (Q06418 41-890): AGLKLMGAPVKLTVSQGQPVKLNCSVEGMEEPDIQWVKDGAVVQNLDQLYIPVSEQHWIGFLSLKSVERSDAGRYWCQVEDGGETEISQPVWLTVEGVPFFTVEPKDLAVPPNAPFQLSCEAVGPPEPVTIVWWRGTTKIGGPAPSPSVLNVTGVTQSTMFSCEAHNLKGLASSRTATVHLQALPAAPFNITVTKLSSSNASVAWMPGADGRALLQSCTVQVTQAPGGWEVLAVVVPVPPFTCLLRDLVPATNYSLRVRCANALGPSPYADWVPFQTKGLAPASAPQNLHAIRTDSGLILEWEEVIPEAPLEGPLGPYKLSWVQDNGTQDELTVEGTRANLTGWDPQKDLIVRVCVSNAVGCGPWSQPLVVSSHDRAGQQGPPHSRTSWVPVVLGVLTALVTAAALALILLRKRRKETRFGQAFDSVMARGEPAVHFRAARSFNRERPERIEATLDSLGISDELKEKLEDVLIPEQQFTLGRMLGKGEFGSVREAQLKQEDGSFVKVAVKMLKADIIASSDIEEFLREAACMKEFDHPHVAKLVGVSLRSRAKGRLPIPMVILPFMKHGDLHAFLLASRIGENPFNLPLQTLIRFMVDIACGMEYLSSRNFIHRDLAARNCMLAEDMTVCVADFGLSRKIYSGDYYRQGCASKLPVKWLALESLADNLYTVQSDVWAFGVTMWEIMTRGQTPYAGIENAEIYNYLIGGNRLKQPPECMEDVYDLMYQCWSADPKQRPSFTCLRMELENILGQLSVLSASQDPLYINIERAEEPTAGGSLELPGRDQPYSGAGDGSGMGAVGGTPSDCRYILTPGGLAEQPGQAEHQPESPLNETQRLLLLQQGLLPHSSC

Another assay addresses T4, RIPK5 (Homo sapiens, UniProt Q6XUX3).
T4 construct: purchased Eurofins DiscoverX KINOMEscan
T4 sequence (Q6XUX3 1-929): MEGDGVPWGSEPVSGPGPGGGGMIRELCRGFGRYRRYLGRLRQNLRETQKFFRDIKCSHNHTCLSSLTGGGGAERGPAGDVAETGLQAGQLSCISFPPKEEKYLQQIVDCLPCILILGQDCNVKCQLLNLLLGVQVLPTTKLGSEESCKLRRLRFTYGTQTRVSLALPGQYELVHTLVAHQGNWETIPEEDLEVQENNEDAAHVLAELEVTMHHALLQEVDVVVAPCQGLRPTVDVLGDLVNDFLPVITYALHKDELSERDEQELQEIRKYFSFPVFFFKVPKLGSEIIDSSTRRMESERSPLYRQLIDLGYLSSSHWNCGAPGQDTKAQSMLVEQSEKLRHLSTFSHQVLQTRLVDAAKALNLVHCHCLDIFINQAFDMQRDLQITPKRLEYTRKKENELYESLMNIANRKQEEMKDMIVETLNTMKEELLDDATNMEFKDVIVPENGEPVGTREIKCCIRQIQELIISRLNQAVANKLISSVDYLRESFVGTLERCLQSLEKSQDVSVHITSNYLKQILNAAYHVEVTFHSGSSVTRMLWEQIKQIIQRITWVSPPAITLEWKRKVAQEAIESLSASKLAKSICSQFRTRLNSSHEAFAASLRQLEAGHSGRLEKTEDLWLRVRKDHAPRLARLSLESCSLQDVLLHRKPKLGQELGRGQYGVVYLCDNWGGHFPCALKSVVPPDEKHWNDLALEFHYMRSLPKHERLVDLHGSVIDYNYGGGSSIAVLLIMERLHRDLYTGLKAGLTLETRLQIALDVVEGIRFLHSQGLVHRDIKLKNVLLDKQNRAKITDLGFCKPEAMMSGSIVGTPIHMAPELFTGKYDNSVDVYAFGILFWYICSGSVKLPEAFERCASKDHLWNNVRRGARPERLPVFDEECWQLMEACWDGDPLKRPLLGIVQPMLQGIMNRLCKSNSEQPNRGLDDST

T1 sequence (P42684 whole entry): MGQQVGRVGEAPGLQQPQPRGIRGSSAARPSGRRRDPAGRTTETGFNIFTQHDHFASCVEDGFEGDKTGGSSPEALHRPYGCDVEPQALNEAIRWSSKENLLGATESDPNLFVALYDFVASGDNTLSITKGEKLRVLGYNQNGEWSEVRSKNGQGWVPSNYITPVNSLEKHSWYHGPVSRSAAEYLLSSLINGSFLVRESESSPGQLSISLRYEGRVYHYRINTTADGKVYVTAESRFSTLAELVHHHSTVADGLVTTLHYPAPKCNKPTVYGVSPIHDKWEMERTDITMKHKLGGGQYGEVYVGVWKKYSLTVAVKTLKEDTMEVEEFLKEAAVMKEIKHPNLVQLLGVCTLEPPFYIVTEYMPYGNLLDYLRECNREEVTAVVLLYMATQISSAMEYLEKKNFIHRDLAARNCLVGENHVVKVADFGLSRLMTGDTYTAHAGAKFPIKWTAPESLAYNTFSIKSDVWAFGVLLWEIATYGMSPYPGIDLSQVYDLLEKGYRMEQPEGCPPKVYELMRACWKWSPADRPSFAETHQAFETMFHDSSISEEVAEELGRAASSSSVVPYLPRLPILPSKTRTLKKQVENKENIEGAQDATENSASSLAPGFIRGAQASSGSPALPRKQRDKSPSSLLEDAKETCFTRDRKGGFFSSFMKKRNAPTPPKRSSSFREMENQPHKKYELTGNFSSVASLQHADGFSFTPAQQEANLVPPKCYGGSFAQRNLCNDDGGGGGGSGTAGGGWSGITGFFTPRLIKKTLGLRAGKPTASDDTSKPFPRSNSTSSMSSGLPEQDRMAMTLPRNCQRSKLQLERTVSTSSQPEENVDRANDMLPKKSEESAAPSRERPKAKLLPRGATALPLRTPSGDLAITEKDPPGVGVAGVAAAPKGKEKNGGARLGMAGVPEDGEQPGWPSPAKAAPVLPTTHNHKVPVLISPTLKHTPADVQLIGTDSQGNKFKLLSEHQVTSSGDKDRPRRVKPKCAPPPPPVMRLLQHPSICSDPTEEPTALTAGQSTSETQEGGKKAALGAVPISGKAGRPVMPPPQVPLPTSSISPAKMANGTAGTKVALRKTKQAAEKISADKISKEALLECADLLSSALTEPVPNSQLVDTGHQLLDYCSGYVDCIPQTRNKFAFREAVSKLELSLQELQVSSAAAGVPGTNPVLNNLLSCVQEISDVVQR

With `Clc1cc(NCC2CC2)c2ncc(-c3ccc4[nH]ncc4c3)n2n1` [compound 2, 6-Chloro-N-(cyclopropylmethyl)-3-(1H-indazol-5-yl)imidazo[1,2-b]pyridazin-8-amine], the remaining binding at 1 µM on ABL2 stood at 100%; on PKMYT1 it was 81%; at TYRO3, 69%; on RIPK5 it was 98%.

Take `O=C(CN1CCOCC1)N[C@H]1CC[C@H](Nc2cc(Cl)nn3c(-c4ccc5[nH]ncc5c4)cnc23)CC1` [compound 26]: the remaining binding at 1 µM at ABL2 worked out at 56%; on PKMYT1 it was 94%; at TYRO3 it was 86%; at RIPK5 it was 91%.

Turning to `CN1CCC(CNc2cc(Cl)nn3c(-c4cc5nc(Nc6ccccc6)[nH]c5cc4F)cnc23)CC1` [compound 31, 6-Chloro-3-(6-fluoro-2-(phenylamino)-1H-benzo[d]imidazol-5-yl)-N-((1-methylpiperidin-4-yl)methyl)imidazo[1,2-b]pyridazin-8-amine], the remaining binding at 1 µM at ABL2 came out at 92%; at PKMYT1 it was 100%; at TYRO3 it was 99%; on RIPK5, 79%.
